Data on five molecules can be found in patent publication US10302660B2, “Methods useful for vitamin D deficiency and related disorders” (OPKO RENAL, LLC, priority 2008, dated 2019).

Entries after “also recorded” stand apart in the source; their conditions may differ.

Assay [1] in a line: 1,25-dihydroxyvitamin D3 levels in vitamin D deficient uremic versus vitamin D deficient rats dosed with 25-hydroxyvitamin D. The class given is in vivo. Particulars: after dosing for two weeks; vitamin D deficient uremic rats compared to vitamin D deficient animals (FIG. 19).
Assay [2] concerns CYP24. The assay is described as follows: Kidney CYP24 mRNA (real-time PCR) in vitamin D deficient rats treated with 25-hydroxyvitamin D3. The class given is in vivo, Sprague Dawley rats. Particulars: vitamin D deficient animals after treatment; 0.6, 3 or 18 mcg/kg daily for two weeks (FIG. 17). As to the method: Sprague Dawley rats were fed either a normal diet or a vitamin D deficient diet for a period of four weeks. Animals were then injected daily for two weeks with either 25-hydroxyvitamin D3 at 0.6, 3, or 18 mcg/kg or vehicle as per the axis label in FIG. 17. Kidneys were collected 24 hours after the last injection and CYP24 mRNA levels were measured by real-time PCR.

In assay [3] the test system is CYP24. The assay is described as follows: Kidney CYP24 mRNA (real-time PCR) in uremic (adenine) vitamin D deficient rats treated with 25-hydroxyvitamin D3. The class given is in vivo, Sprague Dawley rats. The settings on record: uremic vitamin D deficient rats after treatment; 0.6 or 18 mcg/kg daily for two weeks (FIG. 18). On the procedure:
Sprague Dawley rats were fed either a normal diet (Adenine Vehicle group) or a vitamin D deficient diet (Vit. D def./Adenine Vehicle group) for a period of four weeks. Following this treatment, animals were orally administered, daily for two weeks, 100 mg of adenine. Animals were then injected daily for another two weeks with either 25-hydroxyvitamin D3 at 0.6 or 18 mcg/kg or vehicle as per the axis label in FIG. 18. Kidneys were collected 24 hours after the last injection and CYP24 mRNA levels were measured by real-time PCR.
A general note: Real-time PCR tracks product formation cycle by cycle.

Assay [4] can be described thus: Vitamin D hormone status: 1,25-(OH)2-D3 level by mass spectrometry in adenine-fed rats. The format is in vivo. Particulars: versus control-fed animals (FIG. 3).
In assay [5] the test system is parathyroid hormone (PTH). The assay is described as follows: Serum intact PTH (iPTH Elisa Kit) in adenine-fed rats treated with vitamin D compounds. The format is in vivo. The settings on record: treated for one week, versus control-fed animals (FIG. 2). The source says:
To obtain an animal model of vitamin D deficiency, rats were fed an adenine-rich diet.

In another assay the test system is PTH. The assay is described as follows: Serum PTH by ELISA in uremic rats treated with 1,25-dihydroxyvitamin D3. The format is in vivo, Sprague-Dawley rats. The settings on record: 0.5 mcg/kg i.v. daily for 7 days (FIG. 12). As to the method: (§1) CYP24 and CYP27B1 expression was measured using the same protocol outlined above in Example 6 with respect to FIG. 11. Serum levels of 25(OH)D3 and 1,25-dihydroxyvitamin D3 were measured by LC-MS. Serum PTH was measured by ELISA IMMUTOPICS (San Clemente, Calif., USA) according to manufacturer's instructions. Briefly, serum samples were spiked with [26,27-^2H6] 25(OH)D3 or [25,26-^2H6] 1,25-dihydroxyvitamin D3 and dissolved in acetonitrile to serve as an internal standard. 1,25-dihydroxyvitamin D3 or 25(OH)D3 and internal standards were extracted from serum using Accubond II ODS-C18 100 mg, 1 mL SPE cartridges (Agilent Technologies). The collected fractions were evaporated to dryness under a steady stream of nitrogen gas and the residues reconstituted in 50 μL of methanol/H2O (80/20; v/v) and analyzed using LC-MS/MS (Waters Alliance HPLC—Waters Quattro Ultima mass spectrometer). Relative expression values are normalized to the vehicle-treated group (relative expression=1).
In general terms: ELISA stands for enzyme-linked immunosorbent assay.

For assay [6], the system named is CYP24. The assay is described as follows: CYP24 gene expression by real-time PCR in normal and adenine-induced uremic rats dosed with 1,25-dihydroxyvitamin D3. The class given is in vivo, Sprague-Dawley rats. On the procedure: Sprague-Dawley rats were treated i.v. daily with vehicle or 0.5 mcg/kg 1,25-dihydroxyvitamin D3 for 1 week. Organs were collected 24 hours after the last dosing. CYP24 gene expression was determined by real-time PCR.
Sprague-Dawley rats were fed a standard diet (normal) or a uremia-inducing diet containing 0.75% adenine (uremic) for 4 weeks. Animals were then dosed i.v. daily with vehicle or 0.5 mcg/kg 1,25-dihydroxyvitamin D3 for 7 days. Organs were collected 24 hours after the final dosing. CYP24 gene expression was determined by real-time PCR and normalized to GAPDH levels. Relative expression values are normalized to the vehicle-treated group (relative expression=1).
“*” denotes a significant difference in CYP24 expression between vehicle and 1,25-dihydroxyvitamin D3 treatment in normal and uremic rats. “**” represents a significant difference between vehicle-treated normal and uremic rats. “ ? ” denotes significant difference in CYP24 induction levels between normal and uremic rats treated with 1,25-dihydroxyvitamin D3. Significance was set at a p value cutoff of <0.05. Data are presented as mean±SEM. Numerals above each bar signifies relative fold induction to normal-vehicle.
as §1, with “Relative expression values are normalized to the vehicle-treated group (relative expression=1).” left out

Assay [7] in a line: Serum 25(OH)D3 by LC-MS in uremic rats treated with 1,25-dihydroxyvitamin D3. The format is in vivo, Sprague-Dawley rats. Particulars: 0.5 mcg/kg i.v. daily for 7 days (FIG. 12). As to the method: as §1
The test system of a further assay is HEK cells. The assay is described as follows: [3H]-thymidine incorporation in HEK cells, 1,25-dihydroxyvitamin D3 with CYP24 inhibitor. The class given is cell-based. The settings on record: cultured HEK cells, inhibitor at 0, 1, 10 and 50 nM (FIG. 15). As to the method: HEK cells were transferred into 96-well plates at 2000 cells/well density. After 2 days of growth in 96-well plates the cells were treated with 1,25-dihydroxyvitamin D3 at the final concentrations 10^−6-10^−11 M in combination with the MK-24(S)—S(O)(NH)-Ph-1 compound with the varied final concentration of 0, 1, 10 and 50 nM. After overnight treatment [^3H]-thymidine was added to cells, […]/well in KGM media for 16 h. The radioactivity incorporation was counted using a scintillation counter after the addition of […] of scintillation fluid. The data were represented as an incorporation of thymidine in cpm depending on 1,25-dihydroxyvitamin D3 concentration. Each data point represents at least 4 independent trials.

The test system of assay [8] is CYP24. The assay is described as follows: CYP24 induction (real-time PCR) in HEK cells with 1,25-dihydroxyvitamin D3 alone or with CYP24 inhibitor. The class given is cell-based. The settings on record: 10 nM inhibitor with 10 nM 1,25-dihydroxyvitamin D3, 6, 24, 48 and 72 hours (FIG. 14). On the procedure: HEK cells were seeded at 25,000 cells per well (24-well plate) and incubated with 1,25-dihydroxyvitamin D3 (10 nM) alone or with a CYP24 inhibitor (MK-24(S)—S(O)(NH)-Ph-1, see U.S. Pat. No. 7,101,865, compound I(a)) (10 nM) for 6, 24, 48 and 72 hours. Cells were collected and RNA was prepared using TRIZOL® reagent. CYP24 was quantified using real-time PCR.

Assay [9] concerns CYP24. The assay is described as follows: CYP24 RNA expression in HPK1a-ras cells, 1,25-dihydroxyvitamin D3 with or without FGF23. The class given is cell-based. The settings on record: 100 ng/mL FGF23 with 0, 1, 10, 100 nM calcitriol, after 8 hours (FIG. 16). On the procedure: HPK1a-ras cells were treated with 0, 1, 10, and 100 nM of 1,25-dihydroxyvitamin D3 (calcitriol), with or without 100 ng/mL of FGF23, and CYP24 RNA expression was measured after 8 hours.

Turning to `C=C1CC[C@H](O)C/C1=C/C=C1\CCC[C@]2(C)[C@@H]([C@H](C)CCCC(C)(C)O)CC[C@@H]12` [25-OH-D3, 25-hydroxyvitamin D3], the “levels of 1,25-dihydroxyvitamin D3” value in [1] is “lower”. Moreover, the CYP24 levels result in the assay on CYP24 [2] is reported as “increase to normal or higher levels”; in the assay with CYP24 [3], “do not increase”. The “1,25-(OH)2-D3 levels (vitamin D hormone status)” value (shortened to “1,25-(OH)2-D3 levels”) in [4] was “did not significantly affect”. Moreover, the iPTH level result in [5] is listed as “restored to a level similar to control-fed animals”.
`C=C1/C(=C\C=C2/CCC[C@]3(C)[C@@H]([C@H](C)/C=C/[C@H](C)C(C)(C)O)CC[C@@H]23)C[C@@H](O)C[C@@H]1O` [1,25-(OH)2-D2, 1,25-dihydroxyvitamin D2]: in [4], the “1,25-(OH)2-D3 levels” value is recorded as “did not significantly affect”. In addition, in assay [5], the iPTH level result was “restored to a level similar to control-fed animals”.
Take `C=C1/C(=C\C=C2/CCC[C@]3(C)[C@@H]([C@H](C)CCCC(C)(C)O)CC[C@@H]23)C[C@@H](O)C[C@@H]1O` [1,25-(OH)2-D3, 1,25-dihydroxyvitamin D3]: the PTH entry in the assay on PTH is on record as “reduction”. The “induced expression of CYP24” value in the assay on CYP24 [6] (parathyroid gland, uremic compared to normal animals, 0.5 mcg/kg i.v. daily for 7 days (FIG. 11)) is recorded as “significantly induced; also recorded: markedly greater”. The CYP24 gene expression result in the assay with CYP24 [6] (tissues from both normal and uremic rats, 0.5 mcg/kg i.v. daily) is recorded as “strongly induced”. Also, in the assay on CYP24 [6] (uremic rats, 0.5 mcg/kg i.v. daily for 7 days (FIG. 12)), the CYP24 expression entry was “drastically induces”. In addition, in [4], the “1,25-(OH)2-D3 levels” value is reported as “restored to the level of control-fed animals”. Also, the iPTH level result in assay [5] is recorded as “restored to a level similar to control-fed animals”. For the same molecule, the “serum 25-(OH)D3 levels” value in assay [7] is listed as “reduction”.
In the case of `C=C1/C(=C\C=C2/CCC[C@]3(C)[C@@H]([C@H](C)CCC[S@](=N)(=O)c4ccccc4)CC[C@@H]23)C[C@@H](O)C[C@@H]1O` [MK-24(S)—S(O)(NH)-Ph-1, (5Z,7E)-(1S,3R)-24-(S)-phenylsulfoximine-25-nor-9,10-seco-5,7,10(19)-cholestatriene-1,3-diol], the “enhancement of the anti-proliferative effects of 1,25-dihydroxyvitamin D3” value with HEK cells is “approximately 3 orders of magnitude”. For the same molecule, the “CYP24 induction by 1,25-dihydroxyvitamin D3 in the presence of CYP24 inhibitor” value in the assay on CYP24 [8] is given as “markedly extended”.

B1: FGF23: fibroblast growth factor-23 (protein, UniProt Q9GZV9 25-251, looked up)
Fibroblast growth factor 23: YPNASPLLGSSWGGLIHLYTATARNSYHLQIHKNGHVDGAPHQTIYSALMIRSEDAGFVVITGVMSRRYLCMDFRGNIFGSHYFDPENCRFQHQTLENGYDVYHSPQYHFLVSLGRAKRAFLPGMNPPPYSQFLSRRNEIPLIHFNTPIPRRHTRSAEDDSERDPLNVLKPRARMTPAPASCSQELPSAEDNSPMASDPLGVVRGGRVNTHAGGTGPEGCRPFAKFI
B1: in the assay with CYP24 [9], the “CYP24 RNA production, effect with 1,25-dihydroxyvitamin D3” value is recorded as “synergizes”.
